Read-outs that look alike come from different tables or passages of the source.

Experiment [1] has as its system human colon cancer cells HCT-116. The experiment can be described thus: Inhibition of proliferation of HCT-116 cells (SRB method). Type of experiment: cell-based. On the procedure: The inhibitory effects of the compounds on the proliferation of human colon cancer cells HCT-116 were detected by a sulforodamine B (SRB) method. The specific steps were as follows: HCT-116 cells in the logarithmic phase were seeded into a 96-well culture plate at a suitable density with 90 μL per well. After overnight cultivation, the compounds at different concentrations were added to act for 72 h, and a solvent control group (negative control) was set. After 72 h of the compounds acting on the cells, the effects of the compounds on cell proliferation were detected using the SRB method as follows. The culture solution was discarded, and 100 μL/well of 10% trichloroacetic acid (TCA) pre-cooled at 4° C. was added, fixed at 4° C. for 1 h, then washed with distilled water for 5 times, and naturally dried in the air; 100 μL/well of SRB (4 mg/ml) solution prepared by 1% glacial acetic acid was added, stained at room temperature for 15 minutes; the supernatant was removed, washed with 1% acetic acid for 5 times, and air dried; 150 μl/well of Tris (10 mM) solution was added, then left at room temperature for 15 minutes; finally, a full-wavelength microplate enzyme-labeled instrument SpectraMax 190 was used to read with a measurement wavelength of 560 nm. The inhibition rate (%) of the compound on tumor cell growth was calculated by the following formula: [formula]
In general terms: Sulforhodamine B stains cellular protein and so reports cell mass.

Experiment [2] has as its target NAE enzyme (human recombinant APPBP1/UBA3) (Homo sapiens (Human), UniProt Q8TBC4). The experiment in a line: Inhibition of NAE enzyme activity at the molecular level (HTRF). Type of experiment: biochemical. On the procedure: Homogeneous Time-Resolved Fluorescence (HTRF) technology was used to detect the in vitro inhibitory effect of the compound on NAE enzyme activity. […] (7) the inhibition rate of the compound was calculated by the following formula: • a. […] IC50 was calculated with a GraphPad software.
(Time-resolved FRET reads energy transfer from a long-lived donor to a nearby acceptor.)

[3] abbreviates: HCT-116, 72 h, read-out: HCT-116 IC50* (μM).
The mark [4] stands for this setting: HCT-116 cells, 72 h, SRB, read-out: HCT-116 IC50*.

NAE enzyme (human recombinant APPBP1/UBA3), sequence (Q8TBC4 whole entry): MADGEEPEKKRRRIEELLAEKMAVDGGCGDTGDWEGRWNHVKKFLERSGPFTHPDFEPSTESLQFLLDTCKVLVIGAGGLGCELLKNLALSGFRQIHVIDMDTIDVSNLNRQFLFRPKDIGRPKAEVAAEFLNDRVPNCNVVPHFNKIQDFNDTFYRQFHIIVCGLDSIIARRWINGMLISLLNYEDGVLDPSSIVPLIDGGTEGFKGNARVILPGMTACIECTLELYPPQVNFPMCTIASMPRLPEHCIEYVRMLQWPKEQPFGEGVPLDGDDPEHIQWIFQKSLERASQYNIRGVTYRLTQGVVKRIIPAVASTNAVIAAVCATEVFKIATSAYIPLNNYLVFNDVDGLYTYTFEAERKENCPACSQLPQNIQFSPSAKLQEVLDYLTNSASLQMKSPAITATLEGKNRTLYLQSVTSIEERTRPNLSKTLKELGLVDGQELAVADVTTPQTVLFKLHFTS
NAE enzyme (human recombinant APPBP1/UBA3), sequence (Q13564 whole entry partner): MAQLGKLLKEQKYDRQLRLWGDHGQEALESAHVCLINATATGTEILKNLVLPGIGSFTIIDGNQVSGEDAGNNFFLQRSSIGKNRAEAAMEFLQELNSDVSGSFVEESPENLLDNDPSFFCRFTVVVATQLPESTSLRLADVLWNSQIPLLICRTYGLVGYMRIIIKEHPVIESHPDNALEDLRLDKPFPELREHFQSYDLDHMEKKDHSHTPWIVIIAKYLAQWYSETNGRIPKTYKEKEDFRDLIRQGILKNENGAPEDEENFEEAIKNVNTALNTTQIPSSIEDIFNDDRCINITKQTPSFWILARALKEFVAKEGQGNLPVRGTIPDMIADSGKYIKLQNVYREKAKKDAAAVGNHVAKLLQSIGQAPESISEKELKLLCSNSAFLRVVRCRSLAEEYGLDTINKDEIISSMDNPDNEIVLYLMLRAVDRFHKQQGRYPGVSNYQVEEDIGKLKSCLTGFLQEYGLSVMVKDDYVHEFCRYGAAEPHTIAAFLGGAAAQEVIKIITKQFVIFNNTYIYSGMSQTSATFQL

A word on the IC50: it is the concentration that gives 50% inhibition. Turning to `COC(=O)[C@H]1C=C[C@@H](Nc2ncnc3c2nnn3C2CC(O)C(COS(N)(=O)=O)C2)C1` (stereo partly drawn) [Compound S20], the concentration for half-maximal inhibition (IC50) in experiment [1] (setting [3]) is over 100 µM. Besides, the inhibition at 10 µM in experiment [2] (2 h, read-out: IR (10 μM)) came out at 84.8%.
As to `CN1CCC2(CC1)C[C@H](Nc1ncnc3c1nnn3C1CC(O)C(COS(N)(=O)=O)C1)c1ccccc12` (stereo partly drawn) [Compound S15], the IC50 in experiment [1] (setting [4]) lay in the range of 0.01 to 100 µM; in experiment [2] (NAE enzyme activity, HTRF) it was 0.1 to 1 µM. For the same compound, the inhibition at 10 µM in experiment [2] (2 h; read-out: IR (10 μM)) was determined as 77%.
With `NS(=O)(=O)OCC1CC(n2nnc3c(NCCc4ccccc4)ncnc32)CC1O` (stereo not drawn) [Compound S6], the IC50 in experiment [1] (setting [3]) is over 100 µM. Besides, in experiment [2] (2 h, read-out: IR (10 μM)), the inhibition at 10 µM is 95.8%.
Turning to `NS(=O)(=O)OCC1CC(n2nnc3c(N[C@@H]4c5ccccc5C[C@@H]4O)ncnc32)CC1O` (stereo partly drawn) [Compound S9], in experiment [1] (setting [4]), the IC50 was under 0.01 µM. Further, the inhibition at 10 µM in experiment [2] (2 h; read-out: IR (10 μM)) amounted to 98.3%.
With `NS(=O)(=O)OCC1CC(n2nnc3c(Nn4ccc5ccccc54)ncnc32)CC1O` (stereo not drawn) [Compound S18], in experiment [1] (setting [4]), the half-maximal inhibitory concentration (IC50) was over 100 µM. The inhibition at 10 µM in experiment [2] (2 h; read-out: IR (10 μM)) was 43.3%.
`NS(=O)(=O)OC[C@@H]1C[C@@H](n2ccc3c(N[C@H]4CCc5ccccc54)ncnc32)C[C@@H]1O` [MLN4924, reference compound]: the half-maximal inhibitory concentration (IC50) in experiment [1] (setting [4]) is under 0.01 µM. In experiment [2] (2 h, read-out: IR (10 μM)), the inhibition at 10 µM worked out at 98.6%.
As for `NS(=O)(=O)OCC1CC(n2nnc3c(NCCCc4ccccc4)ncnc32)CC1O` (stereo not drawn) [Compound S7], the IC50 in experiment [1] (setting [4]) was over 100 µM; in experiment [2] (NAE enzyme activity, HTRF), 0.1 to 1 µM. Also, the inhibition at 10 µM in experiment [2] (2 h; read-out: IR (10 μM)) was determined as 96.1%.
`NS(=O)(=O)OC[C@@H]1C[C@@H](n2nnc3c(N[C@@H]4C[C@H]4c4ccc(F)c(F)c4)ncnc32)CC1O` (stereo partly drawn) [Compound S16]: the IC50 in experiment [1] (setting [4]) is over 100 µM. In addition, the inhibition at 10 µM in experiment [2] (2 h; read-out: IR (10 μM)) was determined as 85.2%.
The like results for `NS(=O)(=O)OCC1CC(n2nnc3c(NCc4ccco4)ncnc32)CC1O` (stereo not drawn) [Compound S4] were, in that order, 0.01 to 100 µM and 98.6%.
On to `NS(=O)(=O)OCC1CC(n2nnc3c(N[C@H]4CCc5ccccc54)ncnc32)CC1O` (stereo partly drawn) [Compound S1], for which the IC50 in experiment [1] (setting [3]) is under 0.01 µM. Further, the inhibition at 10 µM in experiment [2] (2 h, read-out: IR (10 μM)) amounted to 99%.
Regarding `NS(=O)(=O)OCC1CC(n2nnc3c(Nc4n[nH]c5ccccc45)ncnc32)CC1O` (stereo not drawn) [Compound S17], the IC50 in experiment [1] (setting [4]) is over 100 µM. In experiment [2] (2 h; read-out: IR (10 μM)), the inhibition at 10 µM worked out at 7.9%.
The like results for `NS(=O)(=O)OCC1CC(n2nnc3c(NC4CCCC4)ncnc32)CC1O` (stereo not drawn) [Compound S21] were, in that order, over 100 µM and 48.2%.
As to `NS(=O)(=O)OCC1CC(n2nnc3c(NCCc4cccs4)ncnc32)CC1O` (stereo not drawn) [Compound S5], the IC50 is over 100 µM in experiment [1] (setting [3]) and 0.1 to 1 µM in experiment [2] (NAE enzyme activity, HTRF). The inhibition at 10 µM in experiment [2] (2 h, read-out: IR (10 μM)) came out at 95.2%.
As for `CCCCCCNc1ncnc2c1nnn2C1CC(O)C(COS(N)(=O)=O)C1` (stereo not drawn) [Compound S8], the IC50 in experiment [1] (setting [4]) is over 100 µM. In addition, the inhibition at 10 µM in experiment [2] (2 h; read-out: IR (10 μM)) turned out to be 98.3%.
The like results for `NS(=O)(=O)OCC1CC(n2nnc3c(NCc4cccs4)ncnc32)CC1O` (stereo not drawn) [Compound S3] were, in that order, 0.01 to 100 µM and 98.8%.
The like results for `NS(=O)(=O)OCC1CC(n2nnc3c(Nc4cnc5ccccn45)ncnc32)CC1O` (stereo not drawn) [Compound S19] were, in that order, over 100 µM and 57.8%.
The like results for `NS(=O)(=O)OCC1CC(n2nnc3c(N[C@H]4CC5(CCNCC5)c5ccccc54)ncnc32)CC1O` (stereo partly drawn) [Compound S14] were, in that order, over 100 µM and 91.4%.
As for `NS(=O)(=O)OCC1CC(n2nnc3c(NCc4ccccc4F)ncnc32)CC1O` (stereo not drawn) [Compound S2], the IC50 in experiment [1] (setting [4]) was under 0.01 µM. The inhibition at 10 µM in experiment [2] (2 h; read-out: IR (10 μM)) was found to be 99.5%.
